Assay results published in PubChem BioAssay AID1918945 (Molecular Pharmacology Branch, DTP, NCI, 2023).
Several values for one entry are separate records, joined by “and”; a condition that tells them apart may be missing. Equal entries are not always repeated.

Tested on: 883617-216-R-J1-PDC complex spheroid viability
Assay: Anticancer human tumor 883617-216-R-J1-PDC patient-derived bladder carcinoma cell line growth inhibition
Details: for viability, T/C: stronger effect = lower value; active = viability on the fitted dose curve at most 10% of control; inactive = the rest
Source text: Multicellular complex tumor spheroid response to LSD1 Inhibitor Iadademstat in combination with a variety of drugs and investigational agents in selected tumor cell lines
The current study was undertaken to assess response to LSD1 inhibitors in combination with standard-of-care drugs and investigational agents in solid tumor complex spheroid models as well as in the K-562 leukemia. Complex spheroids include a stromal component modeled by human endothelial cells (HUVEC) and fibroblasts modeled by human mesenchymal stem cells (MSCs). The concentration ranges selected for each drug and investigational agent were based upon clinically achievable concentrations if the clinical Cmax of the agent was known.
Compounds. The drugs and investigational agents used in this study are listed on Table 1. All of the agents used, including staurosporine (NSC755774) and gemcitabine (NSC613327), were obtained from the Developmental Therapeutics Program, NCI. FDA-approved anticancer drugs are available from the NCI at http://dtp.nci.nih.gov/branches/dscb/oncology_drugset_explanation.html. Drugs and investigational agents were >95% pure by proton nuclear magnetic resonance (NMR) and liquid chromatography/mass spectrometry (LC/MS). Stock solutions were prepared at 400x in DMSO, stored at -70 degrees C, and diluted in fresh medium prior to their use. The final concentration of DMSO in cell culture wells never exceeded 0.25% (v/v). The FDA-approved anticancer drug set is available from the Developmental Therapeutics Program at https://dtp.cancer.gov/organization/dscb/obtaining/available_plates.htm. All drugs and investigational agents were tested over a range starting from a high concentration at or near the clinical Cmax and decreasing in half-log increments. If the clinical Cmax for an agent had not been determined, the highest concentration tested was 10 microM.
Cell Lines. The patient-derived cancer cell (PDC) lines: 292921-168-R-J2-PDC, K24384-001-R-PDC, and 521955-158-R2-J5-PDC pancreatic carcinomas, 556581-035-R-J1 ovarian carcinoma, 324938-238-R-J1-PDC, 855422-203-R-J1-PDC and 883617-216-R-J1-PDC urothelial bladder carcinomas, 743489-274-T-PDC renal cell carcinoma, 138582-R-J1 Merkel cell tumor, K60290-347-R-J1 and K57222-313-R-J1-PDC glioblastomas, 653999-131-R-J2-PDC, LG0703-F948-PDC, and 349418-098-R-PDC non-small cell lung carcinomas, 885512-296-R-J2-PDC, 171881-019-R-J1-PDC breast carcinomas and 186277-243-T-J2-PDC and 233499-124-R-J2-PDC colon carcinomas were obtained from the NCI Patient-Derived Models Repository (PDMR, https://pdmr.cancer.gov). The established cell lines NCI/ADR-RES (RRID:CVCL_14520 and OVCAR-5 (RRID:CVCL_1628) ovarian carcinomas, 786-O (RRID:CVCL_1051) and A498 (RRID:CVCL_A498) renal cell carcinoma, NCI-H211 (ATCC, cat. CRL-5824; RRID:CVCL_1529), NCI-H196 (ATCC, cat. CRL-5823, RRID:CVCL_1509), SW 1271 (ATCC, cat. CRL-2177, RRID:CVCL_1716) and NCI-H1876 (ATCC, cat. CRL-5902, RRID:CVCL_1503) small cell lung carcinomas, MDA-MB-231 (RRID:CVCL_0062) and MDA-MB-468 (RRID:CVCL_0419)breast carcinomas (10-12). Pooled donor human umbilical vein endothelial cells (HUVEC, Lonza, cat. CC-2519) and human mesenchymal stem cells (hMSC, Lonza, cat. PT-2501) were purchased from Lonza (Walkersville, MD).
Cell Culture. All cells were maintained in an incubator at 37 degrees C and 5% CO2 with 95% humidity. The PDC lines were cultured according to standard operating procedures established by the NCI PDMR (https://pdmr.cancer.gov). Briefly all PDCs were thawed and cultured in Matrigel-coated flasks prepared with a working solution of 1X Ham's F-12 nutrient mix, without supplementation (Invitrogen, Waltham, MA, cat. 11765054), 100 U/mL penicillin-streptomycin (Invitrogen, cat. 15140122), and 2.5% Matrigel (Corning Inc., Corning, NY, cat. 354248) for the first three passages. […]

[1] = curve of first compound, second compound 0.1 µM
[2] = curve of first compound, second compound 0.316 µM
[3] = curve of first compound, second compound 1 µM
[4] = curve of first compound, second compound 3.16 µM
[5] = curve of first compound, second compound 10 µM
[6] = second compound 0.1 µM, first compound 0.0316 µM
[7] = second compound 0.1 µM, first compound 0.1 µM
[8] = second compound 0.316 µM, first compound 0.0316 µM
[9] = second compound 0.316 µM, first compound 0.1 µM
[10] = second compound 1 µM, first compound 0.0316 µM
[11] = second compound 1 µM, first compound 0.1 µM
[12] = second compound 3.16 µM, first compound 0.0316 µM
[13] = second compound 3.16 µM, first compound 0.1 µM
[14] = second compound 10 µM, first compound 0.0316 µM
[15] = second compound 10 µM, first compound 0.1 µM
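Also: exposure lasted seven days after three days of spheroid growth.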
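For viability, T/C in this document: 100% = DMSO vehicle control luminescence.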

CCN(c1cc(-c2ccc(CN3CCOCC3)cc2)cc(C(=O)NCc2c(C)cc(C)[nH]c2=O)c1C)C1CCOCC1
inactive: viability, T/C (compound 0.00949 µM) 98.4% and 76.7% | viability, T/C (compound 0.03 µM) 84.1% and 80.7% | viability, T/C (compound 0.0949 µM) 85.5% and 79.5% | viability, T/C (compound 0.3 µM) 87.4% and 70.5% | viability, T/C (compound 0.949 µM) 89.7% and 63.1% | viability, T/C (compound 3 µM) 77.4% and 63.9%
> 3000 nM: IC50 (curve of compound)

CC[C@@]1(O)C(=O)OCc2c1cc1n(c2=O)Cc2cc3c(CN(C)C)c(O)ccc3nc2-1 + NC1CC1c1ccc(-c2cccc(O)c2)cc1
2.07 nM: IC50 [3]
2.24 nM: IC50 [2]
inactive: viability, T/C (second compound 0.1 µM, first compound 0.000316 µM) 97.4% | viability, T/C (second compound 0.1 µM, first compound 0.001 µM) 61.4% | viability, T/C (second compound 0.1 µM, first compound 0.00316 µM) 45.5% | viability, T/C (second compound 0.1 µM, first compound 0.01 µM) 30.5% | viability, T/C [6] 24.3% | viability, T/C [7] 19.4% | viability, T/C (second compound 0.316 µM, first compound 0.000316 µM) 94.8% | viability, T/C (second compound 0.316 µM, first compound 0.001 µM) 73.4% | viability, T/C (second compound 0.316 µM, first compound 0.00316 µM) 37.9% | viability, T/C (second compound 0.316 µM, first compound 0.01 µM) 30.4% | viability, T/C [8] 22.9% | viability, T/C [9] 19.1% | viability, T/C (second compound 1 µM, first compound 0.000316 µM) 93.7% | viability, T/C (second compound 1 µM, first compound 0.001 µM) 71.5% | viability, T/C (second compound 1 µM, first compound 0.00316 µM) 36.9% | viability, T/C (second compound 1 µM, first compound 0.01 µM) 27.2% | viability, T/C [10] 24.6% | viability, T/C [11] 21.2% | viability, T/C (second compound 3.16 µM, first compound 0.000316 µM) 93.8% | viability, T/C (second compound 3.16 µM, first compound 0.001 µM) 57.6% | viability, T/C (second compound 3.16 µM, first compound 0.00316 µM) 32.2% | viability, T/C (second compound 3.16 µM, first compound 0.01 µM) 27.9% | viability, T/C [12] 24.2% | viability, T/C [13] 17.9% | viability, T/C (second compound 10 µM, first compound 0.000316 µM) 76.1% | viability, T/C (second compound 10 µM, first compound 0.001 µM) 42.2% | viability, T/C (second compound 10 µM, first compound 0.00316 µM) 35.3% | viability, T/C (second compound 10 µM, first compound 0.01 µM) 26.6% | viability, T/C [14] 24.2% | viability, T/C [15] 16.9%
1.42 nM: IC50 [4]
0.862 nM: IC50 [5]
2.14 nM: IC50 [1]

O=C(C=Cn1cnc(-c2cc(C(F)(F)F)cc(C(F)(F)F)c2)n1)NNc1cnccn1
inactive: viability, T/C (compound 0.00316 µM) 87.2% and 64.4% | viability, T/C (compound 0.01 µM) 56.7% and 27.2% | viability, T/C (compound 0.0316 µM) 35.6% and 23.6% | viability, T/C (compound 0.1 µM) 31.5% and 16.4% | viability, T/C (compound 0.316 µM) 28.4% and 14.6% | viability, T/C (compound 1 µM) 23.4% and 14.3%
14.6 nM and 5.02 nM: IC50 (curve of compound)

CC1COCCN1c1cc(C2(S(C)(=N)=O)CC2)nc(-c2ccnc3[nH]ccc23)n1 (configuration not stated) + NC1CC1c1ccc(-c2cccc(O)c2)cc1
259 nM: IC50 [4]
357 nM: IC50 [1]
435 nM: IC50 [2]
inactive: viability, T/C [6] 97.8% | viability, T/C [7] 78.5% | viability, T/C (second compound 0.1 µM, first compound 0.316 µM) 51.9% | viability, T/C (second compound 0.1 µM, first compound 1 µM) 35% | viability, T/C (second compound 0.1 µM, first compound 3.16 µM) 28.9% | viability, T/C (second compound 0.1 µM, first compound 10 µM) 27.7% | viability, T/C [8] 112% | viability, T/C [9] 76.6% | viability, T/C (second compound 0.316 µM, first compound 0.316 µM) 55% | viability, T/C (second compound 0.316 µM, first compound 1 µM) 38.2% | viability, T/C (second compound 0.316 µM, first compound 3.16 µM) 31.8% | viability, T/C (second compound 0.316 µM, first compound 10 µM) 25.2% | viability, T/C [10] 101% | viability, T/C [11] 77.4% | viability, T/C (second compound 1 µM, first compound 0.316 µM) 55.3% | viability, T/C (second compound 1 µM, first compound 1 µM) 41.5% | viability, T/C (second compound 1 µM, first compound 3.16 µM) 29.1% | viability, T/C (second compound 1 µM, first compound 10 µM) 22.4% | viability, T/C [12] 88.5% | viability, T/C [13] 65.3% | viability, T/C (second compound 3.16 µM, first compound 0.316 µM) 46.1% | viability, T/C (second compound 3.16 µM, first compound 1 µM) 35% | viability, T/C (second compound 3.16 µM, first compound 3.16 µM) 31.5% | viability, T/C (second compound 3.16 µM, first compound 10 µM) 24.6% | viability, T/C [14] 81% | viability, T/C [15] 58.4% | viability, T/C (second compound 10 µM, first compound 0.316 µM) 34.6% | viability, T/C (second compound 10 µM, first compound 1 µM) 29.3% | viability, T/C (second compound 10 µM, first compound 3.16 µM) 25.8% | viability, T/C (second compound 10 µM, first compound 10 µM) 22.8%
501 nM: IC50 [3]
152 nM: IC50 [5]

Nc1ncn(C2CC(O)C(CO)S2)c(=O)n1 (configuration not stated)
inactive: viability, T/C (compound 0.000949 µM) 108% and 85.9% | viability, T/C (compound 0.003 µM) 105% and 77% | viability, T/C (compound 0.00949 µM) 87.3% and 55.7% | viability, T/C (compound 0.03 µM) 69% and 39.4% | viability, T/C (compound 0.0949 µM) 58% and 34.1% | viability, T/C (compound 0.3 µM) 44% and 27.4%

CC1(C)CCC(CN2CCN(c3ccc(C(=O)NS(=O)(=O)c4ccc(NCC5CCOCC5)c([N+](=O)[O-])c4)c(Oc4cnc5[nH]ccc5c4)c3)CC2)=C(c2ccc(Cl)cc2)C1
7890 nM and 7100 nM: IC50 (curve of compound)
inactive: viability, T/C (compound 0.0316 µM) 107% and 103% | viability, T/C (compound 0.1 µM) 111% and 102% | viability, T/C (compound 0.316 µM) 111% and 99% | viability, T/C (compound 1 µM) 109% and 106% | viability, T/C (compound 3.16 µM) 111% and 102% | viability, T/C (compound 10 µM) 34.5% and 27.7%
